Laboratory results reported in patent US20250122218A1, “MODULATORS OF CYSTIC FIBROSIS TRANSMEMBRANE CONDUCTANCE REGULATOR” (Vertex Pharmaceuticals Incorporated, priority 2022, published 2025).

Target: T1, CFTR in F508del/MF-HBE cells (Homo sapiens, UniProt P13569, DEL508-508)
T1 construct: human bronchial epithelial (HBE) cells derived from CF subjects heterozygous for F508del and a minimal function CFTR mutation; endogenous in cells; host or cells: primary human bronchial epithelial cells from CF subjects (F508del/MF-HBE)
T1 sequence (P13569 with tags, fused parts or gaps DEL508-508): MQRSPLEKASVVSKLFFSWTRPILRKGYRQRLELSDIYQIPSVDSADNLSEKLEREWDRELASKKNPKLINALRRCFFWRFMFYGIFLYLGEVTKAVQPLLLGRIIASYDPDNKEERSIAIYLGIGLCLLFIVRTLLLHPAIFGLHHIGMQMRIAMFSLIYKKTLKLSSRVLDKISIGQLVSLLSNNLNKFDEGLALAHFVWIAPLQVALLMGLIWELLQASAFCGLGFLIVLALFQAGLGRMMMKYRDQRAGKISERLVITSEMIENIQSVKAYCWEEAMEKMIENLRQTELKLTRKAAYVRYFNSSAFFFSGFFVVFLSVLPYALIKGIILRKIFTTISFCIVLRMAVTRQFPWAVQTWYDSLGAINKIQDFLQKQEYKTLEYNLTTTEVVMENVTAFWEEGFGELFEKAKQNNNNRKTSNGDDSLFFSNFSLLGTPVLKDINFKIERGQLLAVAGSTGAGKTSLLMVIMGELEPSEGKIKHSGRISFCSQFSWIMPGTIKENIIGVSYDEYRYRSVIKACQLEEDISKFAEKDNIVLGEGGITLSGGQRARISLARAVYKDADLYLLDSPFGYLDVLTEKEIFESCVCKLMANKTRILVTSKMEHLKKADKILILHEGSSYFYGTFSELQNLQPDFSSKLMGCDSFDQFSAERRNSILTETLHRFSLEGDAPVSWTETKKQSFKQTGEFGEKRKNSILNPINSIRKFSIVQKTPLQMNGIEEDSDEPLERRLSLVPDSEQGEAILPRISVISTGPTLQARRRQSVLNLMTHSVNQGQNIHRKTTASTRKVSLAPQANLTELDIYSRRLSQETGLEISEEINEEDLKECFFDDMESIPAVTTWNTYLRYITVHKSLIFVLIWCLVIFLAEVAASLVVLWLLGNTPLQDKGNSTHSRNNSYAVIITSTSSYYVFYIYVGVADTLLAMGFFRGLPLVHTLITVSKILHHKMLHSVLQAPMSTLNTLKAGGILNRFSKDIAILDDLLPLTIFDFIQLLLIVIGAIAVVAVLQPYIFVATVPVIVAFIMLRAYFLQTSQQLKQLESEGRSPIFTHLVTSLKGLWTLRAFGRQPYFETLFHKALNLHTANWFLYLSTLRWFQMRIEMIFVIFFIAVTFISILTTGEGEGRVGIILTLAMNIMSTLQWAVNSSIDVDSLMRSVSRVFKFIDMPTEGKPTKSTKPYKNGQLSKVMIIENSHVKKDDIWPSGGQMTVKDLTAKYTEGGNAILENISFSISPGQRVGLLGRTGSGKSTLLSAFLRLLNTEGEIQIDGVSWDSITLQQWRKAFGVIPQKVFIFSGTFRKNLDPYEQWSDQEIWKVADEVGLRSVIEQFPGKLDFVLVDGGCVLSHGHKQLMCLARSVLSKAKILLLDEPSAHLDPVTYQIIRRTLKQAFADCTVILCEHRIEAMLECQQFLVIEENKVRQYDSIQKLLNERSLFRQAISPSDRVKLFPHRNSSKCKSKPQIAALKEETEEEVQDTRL
Experiment: Ussing chamber assay of CFTR-mediated short-circuit currents (identification of potentiator compounds)
Assay type: cell-based
Details: potentiator incubated 18-24 hours at 37° C. in combination with 10 μM corrector, in the presence of 20% human serum, CFTR-mediated ISC
How it was run: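 Short-circuit current was measured in Ussing chambers at 37° C, Vhold 0 mV, 30 μM apical amiloride. CFTR current was defined as the forskolin (20 μM) response relative to the current remaining after BPO/GlyH-101/inhibitor 172 (20 μM each). Before recording, cells had 18-24 h exposure to test potentiators with 10 μM corrector compound in 20% human serum.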

## CC1(C)CCCCC[C@@](O)(C(F)(F)F)C2=NN=C(O2)c2nc(c(C(F)(F)F)cc2N)C1=O [Compound 46, (6S)-17-amino-6-hydroxy-12,12-dimethyl-6,15-bis(trifluoromethyl)-19-oxa-3,4,18-triazatricyclo[12.3.1.12,5]nonadeca-1(18),2,4,14,16-pentaen-13-one]
  EC50: < 500 nM

## CC1(C)CCCC[C@](O)(C(F)(F)F)C2=NN=C(O2)c2nc(c(C(F)(F)F)cc2N)C(=O)C1 [Compound 47, (6R)-17-amino-6-hydroxy-11,11-dimethyl-6,15-bis(trifluoromethyl)-19-oxa-3,4,18-triazatricyclo[12.3.1.12,5]nonadeca-1(18),2,4,14,16-pentaen-13-one]
  EC50: < 500 nM

## Nc1cc(C(F)(F)F)c2nc1-c1nnc(o1)[C@@](O)(C(F)(F)F)CCCCCC1(CCC1)C2=O [Compound 48, (6R)-17-amino-6-hydroxy-6,15-bis(trifluoromethyl)spiro[19-oxa-3,4,18-triazatricyclo[12.3.1.12,5]nonadeca-1(18),2,4,14,16-pentaene-12,1′-cyclobutane]-13-one]
  EC50: < 500 nM

## Nc1cc(C(F)(F)F)c2nc1-c1nnc(o1)[C@@](O)(C(F)(F)F)CCCCCC1(CC1)C2=O [Compound 49, (6R)-17-amino-6-hydroxy-6,15-bis(trifluoromethyl)spiro[19-oxa-3,4,18-triazatricyclo[12.3.1.12,5]nonadeca-1(18),2,4,14,16-pentaene-12,1′-cyclopropane]-13-one]
  EC50: < 500 nM

## CC1(C)CCCCC[C@](O)(C(F)(F)F)C2=NN=C(O2)c2nc(c(C(F)(F)F)cc2N)C1 [Compound 50, (6R)-17-amino-12,12-dimethyl-6,15-bis(trifluoromethyl)-19-oxa-3,4,18-triazatricyclo[12.3.1.12,5]nonadeca-1(18),2,4,14,16-pentaen-6-ol]
  EC50: < 500 nM

## Nc1cc(C(F)(F)F)c2nc1-c1nnc(o1)C(O)(C(F)(F)F)CCCCN(Cc1ccccc1)C(=O)C2 (stereo not shown) [Compound 51, 17-amino-11-benzyl-6-hydroxy-6,15-bis(trifluoromethyl)-19-oxa-3,4,11,18-tetrazatricyclo[12.3.1.12,5]nonadeca-1(18),2,4,14,16-pentaen-12-one]
  EC50: < 500 nM

## CC(C)N1CCCCC(O)(C(F)(F)F)C2=NN=C(O2)c2nc(c(C(F)(F)F)cc2N)CC1=O (stereo not shown) [Compound 52, 17-amino-6-hydroxy-11-isopropyl-6,15-bis(trifluoromethyl)-19-oxa-3,4,11,18-tetrazatricyclo[12.3.1.12,5]nonadeca-1(18),2,4,14,16-pentaen-12-one]
  EC50: > 1000 nM

## CN1CCCCC(O)(C(F)(F)F)C2=NN=C(O2)c2nc(c(C(F)(F)F)cc2N)CC1=O (stereo not shown) [Compound 53, 17-amino-6-hydroxy-11-methyl-6,15-bis(trifluoromethyl)-19-oxa-3,4,11,18-tetrazatricyclo[12.3.1.12,5]nonadeca-1(18),2,4,14,16-pentaen-12-one]
  EC50: > 1000 nM

## COC1CCCCc2ccc(F)c(c2)C(O)(C(F)(F)F)C2=NN=C(O2)c2nc1c(C(F)(F)F)cc2N (stereo not shown) [Compound 61, 20-Amino-8-fluoro-16-methoxy-6,18-bis(trifluoromethyl)-23-oxa-3,4,21-triazatetracyclo[15.3.1.12,5.17,11]tricosa-1(21),2,4,7(22),8,10,17,19-octaen-6-ol]
  EC50: < 500 nM

## COC1CCCCc2ccc(F)c(c2)C(O)(C(F)(F)F)C2=NN=C(O2)c2nc1c(C(F)(F)F)cc2N (stereo not shown) [Compound 62, 20-Amino-8-fluoro-16-methoxy-6,18-bis(trifluoromethyl)-23-oxa-3,4,21-triazatetracyclo[15.3.1.12,5.17,11]tricosa-1(21),2,4,7(22),8,10,17,19-octaen-6-ol]
  EC50: < 500 nM

## N#CC1CCCCc2cccc(c2)C(O)(C(F)(F)F)C2=NN=C(O2)c2nc1c(C(F)(F)F)cc2N (stereo not shown) [Compound 63, 20-amino-6-hydroxy-6,18-bis(trifluoromethyl)-23-oxa-3,4,21-triazatetracyclo[15.3.1.12,5.17,11]tricosa-1(21),2,4,7,9,11(22),17,19-octaene-16-carbonitrile]
  EC50: < 500 nM

## N#CC1CCCCc2cccc(c2)C(O)(C(F)(F)F)C2=NN=C(O2)c2nc1c(C(F)(F)F)cc2N (stereo not shown) [Compound 64, 20-amino-6-hydroxy-6,18-bis(trifluoromethyl)-23-oxa-3,4,21-triazatetracyclo[15.3.1.12,5.17,11]tricosa-1(21),2,4,7,9,11(22),17,19-octaene-16-carbonitrile]
  EC50: < 500 nM

## N#CC1CCCCc2ccc(F)c(c2)C(O)(C(F)(F)F)C2=NN=C(O2)c2nc1c(C(F)(F)F)cc2N (stereo not shown) [Compound 69, 20-Amino-8-fluoro-6-hydroxy-6,18-bis(trifluoromethyl)-23-oxa-3,4,21-triazatetracyclo[15.3.1.12,5.17,11]tricosa-1(21),2,4,7,9,11(22),17,19-octaene-16-carbonitrile]
  EC50: < 500 nM

## COc1ccc(CN2CCCCC[C@](O)(C(F)(F)F)C3=NN=C(O3)c3nc(c(C(F)(F)F)cc3N)C2=O)cc1 [Compound 76, (6R)-17-Amino-6-hydroxy-12-[(4-methoxyphenyl)methyl]-6,15-bis (trifluoromethyl)-19-oxa-3,4,12,18-tetrazatricyclo [12.3.1.12,5] nonadeca-1(18),2,4,14,16-pentaen-13-one]
  EC50: < 500 nM

## CC(C)(C)CN1CCCCC[C@](O)(C(F)(F)F)C2=NN=C(O2)c2nc(c(C(F)(F)F)cc2N)C1=O [Compound 80, (6R)-17-Amino-12-(2,2-dimethylpropyl)-6-hydroxy-6,15-bis (trifluoromethyl)-19-oxa-3,4,12,18-tetrazatricyclo [12.3.1.12,5] nonadeca-1(18),2,4,14,1 6-pentaen-13-one]
  EC50: < 500 nM

## Nc1cc(C(F)(F)F)c2nc1-c1nnc(o1)[C@@](O)(C(F)(F)F)CCCCCN(C1CCCCC1)C2=O [Compound 81, (6R)-17-Amino-12-cyclohexyl-6-hydroxy-6,15-bis (trifluoromethyl)-19-oxa-3,4,12,18-tetrazatricyclo [12.3.1.12,5] nonadeca-1(18),2,4,14,1 6-pentaen-13-one]
  EC50: < 500 nM

## CCCN1CCCCC[C@](O)(C(F)(F)F)C2=NN=C(O2)c2nc(c(C(F)(F)F)cc2N)C1=O [Compound 82, (6R)-17-Amino-6-hydroxy-12-propyl-6,15-bis (trifluoromethyl)-19-oxa-3,4,12,18-tetrazatricyclo [12.3.1.12,5] nonadeca-1(18),2,4,14,1 6-pentaen-13-one]
  EC50: < 500 nM

## Nc1cc(C(F)(F)F)c2nc1-c1nnc(o1)[C@@](O)(C(F)(F)F)CCCCCN(CC1CC1)C2=O [Compound 83, (6R)-17-Amino-12-(cyclopropylmethyl)-6-hydroxy-6,15-bis(trifluoromethyl)-19-oxa-3,4,12,18-tetrazatricyclo [12.3.1.12,5] nonadeca-1(18),2,4,14,1 6-pentaen-13-one]
  EC50: < 500 nM

## Nc1cc(C(F)(F)F)c2nc1-c1nnc(o1)[C@@](O)(C(F)(F)F)CCCCCN(C1CC(F)(F)C1)C2=O [Compound 84, (6R)-17-Amino-12-(3,3-difluorocyclobutyl)-6-hydroxy-6,15-bis (trifluoromethyl)-19-oxa-3,4,12,18-tetrazatricyclo [12.3.1.12,5] nonadeca-1(18),2,4,14,1 6-pentaen-13-one]
  EC50: < 500 nM

## CC(C)(C)N1CCCCC[C@](O)(C(F)(F)F)C2=NN=C(O2)c2nc(c(C(F)(F)F)cc2N)C1=O [Compound 85, (6R)-17-Amino-12-tert-butyl-6-hydroxy-6,15-bis(trifluoromethyl)-19-oxa-3,4,12,18-tetrazatricyclo [12.3.1.12,5] nonadeca-1(18),2,4,14,1 6-pentaen-13-one]
  EC50: < 500 nM

## Nc1cc(C(F)(F)F)c2nc1-c1nnc(o1)[C@@](O)(C(F)(F)F)CCCCCN(C13CC(C1)C3)C2=O [Compound 86, (6R)-17-Amino-12-(1-bicyclo[1.1.1]pentanyl)-6-hydroxy-6,15-bis (trifluoromethyl)-19-oxa-3,4,12,18-tetrazatricyclo [12.3.1.12,5] nonadeca-1(18),2,4,14,1 6-pentaen-13-one]
  EC50: < 500 nM

## Nc1cc(C(F)(F)F)c2nc1-c1nnc(o1)[C@@](O)(C(F)(F)F)CCCCCN(C1CC3(CCC3)C1)C2=O [Compound 87, (6R)-17-Amino-6-hydroxy-12-spiro[3.3]heptan-2-yl-6,15-bis(trifluoromethyl)-19-oxa-3,4,12,18-tetrazatricyclo [12.3.1.12,5] nonadeca-1(18),2,4,14,1 6-pentaen-13-one]
  EC50: < 500 nM

## CC[C@H](C)N1CCCCC[C@](O)(C(F)(F)F)C2=NN=C(O2)c2nc(c(C(F)(F)F)cc2N)C1=O [Compound 88, (6R)-17-Amino-6-hydroxy-12-[(1S)-1-methylpropyl]-6,15-bis (trifluoromethyl)-19-oxa-3,4,12,18-tetrazatricyclo [12.3.1.12,5] nonadeca-1(18),2,4,14,1 6-pentaen-13-one]
  EC50: < 500 nM

## CC[C@@H](C)N1CCCCC[C@](O)(C(F)(F)F)C2=NN=C(O2)c2nc(c(C(F)(F)F)cc2N)C1=O [Compound 89, (6R)-17-Amino-6-hydroxy-12-[(1R)-1-methylpropyl]-6,15-bis (trifluoromethyl)-19-oxa-3,4,12,18-tetrazatricyclo [12.3.1.12,5] nonadeca-1(18),2,4,14,1 6-pentaen-13-one]
  EC50: < 500 nM

## CCC(C)(C)N1CCCCC[C@](O)(C(F)(F)F)C2=NN=C(O2)c2nc(c(C(F)(F)F)cc2N)C1=O [Compound 90, (6R)-17-Amino-12-(1,1-dimethylpropyl)-6-hydroxy-6,15-bis(trifluoromethyl)-19-oxa-3,4,12,18-tetrazatricyclo [12.3.1.12,5] nonadeca-1(18),2,4,14,1 6-pentaen-13-one]
  EC50: < 500 nM
